Measurements published in ChEMBL document CHEMBL2150895, “Zizimauritic acids A-C, three novel nortriterpenes from Ziziphus mauritiana” (Bioorg Med Chem Lett, 2012).
Values after ≈ are worked out from the molar mass of the structure shown. Active and inactive are the calls of the source. The calls are words filed in the database; no cut-off is given here.

Key:
[1] = test system: Staphylococcus aureus; assay: Antibacterial activity against Staphylococcus aureus; assay type: functional, organism-based
[2] = test system: HeLa; assay: Cytotoxicity against human HeLa cells; assay type: functional, cell-based
[3] = test system: BGC-823; assay: Cytotoxicity against human BGC823 cells; assay type: functional, cell-based
[4] = test system: A549; assay: Cytotoxicity against human A549 cells; assay type: functional, cell-based
[5] = test system: Candida albicans; assay: Antifungal activity against Candida albicans; assay type: functional, organism-based

| Structure (SMILES) | Activity [1] | Activity [2] | Activity [3] | Activity [4] | IC50 [1] | IC50 [5] | IC50 [2] | IC50 [3] | IC50 [4] |
| --- | --- | --- | --- | --- | --- | --- | --- | --- | --- |
| C=C(C)[C@@H]1CC[C@]2(C(=O)O)CC[C@]3(C)[C@H](CC[C@@H]4[C@@]5(C)CC[C@H](O)C(C)(C)[C@@H]5CC[C@]43C)[C@@H]12 | inactive | inactive | inactive | inactive | – | – | – | – | – |
| C=C(C)[C@@H]1CC[C@]2(C(=O)O)CC[C@]3(C)[C@H](CC[C@@H]4[C@@]5(C)[C@@H](C(=O)O)[C@H](O)C(C)(C)[C@@H]5CC[C@]43C)[C@@H]12 | inactive | inactive | inactive | inactive | – | – | – | – | – |
| CC(C)=C[C@@H]1[C@H]2CC[C@@H]3[C@@]4(C)C=CC(C)(C)[C@@H]4CC[C@@]3(C)[C@]2(C(=O)O)CC[C@@]12CC(O)OC2=O (mixture of isomers) [ZIZIMAURITIC ACID C] | – | – | – | – | 12.8 µg/mL | > 10 µg/mL | 9.25 µg/mL | 10.1 µg/mL | 11.9 µg/mL |
| CC1(C)S[C@@H]2[C@H](NC(=O)[C@H](N)c3ccccc3)C(=O)N2[C@H]1C(=O)O [AMPICILLIN] | – | – | – | – | 0.04 µg/mL (≈ 0.114 µM) | – | – | – | – |
| C=C(C)[C@@H]1CC[C@]2(C(=O)O)CC[C@]3(C(=O)O)[C@H](CC[C@@H]4[C@@]5(C)C=CC(C)(C)[C@@H]5CC[C@]43C)[C@@H]12 [CEANOTHENIC ACID] | – | – | – | – | > 20 µg/mL | > 10 µg/mL | 7.55 µg/mL (≈ 16.6 µM) | > 10 µg/mL | – |
| Clc1ccc(COC(Cn2ccnc2)c2ccc(Cl)cc2Cl)c(Cl)c1.O=[N+]([O-])O (configuration not stated) [MICONAZOLE NITRATE] | – | – | – | – | – | 0.16 µg/mL | – | – | – |
| CC(=O)O[C@H]1C(=O)[C@@]2(C)[C@H]([C@H](OC(=O)c3ccccc3)[C@]3(O)C[C@H](OC(=O)[C@H](O)[C@@H](NC(=O)c4ccccc4)c4ccccc4)C(C)=C1C3(C)C)[C@]1(OC(C)=O)CO[C@@H]1C[C@@H]2O [PACLITAXEL] | – | – | – | – | – | – | 0.38 µg/mL (≈ 0.445 µM) | 0.01 µg/mL (≈ 0.0117 µM) | 0.02 µg/mL (≈ 0.0234 µM) |
| CO[C@H]1C[C@@]2(CC[C@]3(C(=O)O)[C@H](CC[C@@H]4[C@@]5(C)C=CC(C)(C)[C@@H]5CC[C@]43C)[C@H]2C=C(C)C)C(=O)O1 [ZIZIMAURITIC ACID A] | – | – | – | – | 2.17 µg/mL (≈ 4.48 µM) | > 10 µg/mL | 6.06 µg/mL (≈ 12.5 µM) | 8.8 µg/mL (≈ 18.2 µM) | 9.37 µg/mL (≈ 19.3 µM) |
| CO[C@@H]1C[C@@]2(CC[C@]3(C(=O)O)[C@H](CC[C@@H]4[C@@]5(C)C=CC(C)(C)[C@@H]5CC[C@]43C)[C@H]2C=C(C)C)C(=O)O1 [ZIZIMAURITIC ACID B] | – | – | – | – | > 20 µg/mL | > 10 µg/mL | 5.36 µg/mL (≈ 11.1 µM) | 6.24 µg/mL (≈ 12.9 µM) | 5.05 µg/mL (≈ 10.4 µM) |
